{"source": "paper PMC5321741", "about": "“Arylmethylamino steroids as antiparasitic agents” (Nature Communications, 2017)", "key": {"[1]": {"test_system": "Sporobolomyces salmonicolor JMRC:ST:35974", "assay": "agar diffusion inhibition zone test", "assay_type": "cell-based", "conditions": "1o, 2o 1,000 µg/ml in DMSO; amphotericin B 10 µg/ml; solvent DMSO 20p", "description": "(§1) The following organisms were tested at the Hans Knöll Institute in Jena, for their susceptibility to the compounds 1o and 2o: Bacillus subtilis JMRC:STI:10880, Staphylococcus aureus JMRC:ST:10760, Escherichia coli JMRC:ST:33699, Pseudomonas aeruginosa JMRC:ST:33772, Pseudomonas aeruginosa JMRC:ST:337721, Staphylococcus aureus JMRC:ST:33793 (multi-resistant), Enterococcus faecalis JMRC:ST:33700 (Vancomycin-resistant), Mycobacterium vaccae JMRC:STI:10670, Sporobolomyces salmonicolor (Basidiomycetes yeast) JMRC:ST:35974, Candida albicans (Ascomycetes yeast) JMRC:STI:25000, Penicillium notatum JMRC:STI:50164.\n(§2) The bacteria were propagated in Mueller Hinton Broth (Oxoid)[49]. Yeast was propagated in YPD (yeast extract peptone dextrose): 1% yeast extract, 10 g; 2% peptone, 20 g; 2% agar, 20 g; 2% dextrose (glucose), 20 g; Sigma-Y1375. All bacteria and yeast suspensions were freshly made. The cultures were incubated at 37 °C for 16 h. Afterwards, the bacteria concentration from each culture was determined, and 34 ml of nutrient agar was loaded with 10^7 cells. These cultures were stored at 6-8 °C and could be used for seven days for the preparation of test plates. 34 ml of nutrient agar was liquefied and inoculated with the calculated amount of inoculum bacteria suspension at 48–50 °C, a temperature suitable for vegetative forms of bacteria. The inoculated nutrient media (34 ml each) were immediately poured into the prepared test plates (3 mm layer). With a punching device, 12 holes per test plate were punched out. For inhibiting bacterial growth, ciprofloxacin was used as a reference substance. The test substances were dissolved in distilled water, and 5 μg ml^−1 and 50 μl was added to each bacterial culture. For inhibition of fungal growth, amphotericin B served as the reference substance. The test substances were diluted to 10 μg ml^−1 in DMSO/methanol; 50 μl was added to each culture.\n(§3) Configuring the test plate; volumes/punched hole: 50 μl; test solutions/test plate: 1 × 50 μl reference substance. Test plates were cultivated for 18 h at 37 °C. Analysis: Reading the inhibition zones (IZ): As IZ, the zone in which no growth can be determined with the naked eye is measured; the tiniest colonies on the edge of the inhibition zone were therefore not taken into consideration. The diameter (φ) of the IZ is measured in mm. The analysis of IZ φ is carried out internationally with the help of statistic procedures, especially regression analysis. With each test approach, the reference substance was brought along as a control; if there were deviations from allowed IZ φ, the test was repeated.\n(§4) The inhibition of bacterial growth was determined using bacterial cultures grown in Müller-Hinton Bouillon, which was configured at barely visible opacity with the McFarland Standard Nr. 0.5, which indicates a bacterial density of 10^8 ml^−1. This bacterial suspension was diluted with Müller-Hinton Bouillon using 2-fold dilution series in the agar diffusion test.\n(§5) Analysis: The growth in the inhibition zones around the holes containing active substances is thereby compared with the growth in the growth control (no active substance). Bacterial growth was determined according to four measurements: p=presence of colonies in the inhibition zone, P=presence of many colonies in the inhibition zone, A=indication of inhibition, F=facilitation."}, "[2]": {"test_system": "Candida albicans JMRC:STI:25000", "assay": "agar diffusion inhibition zone test", "assay_type": "cell-based", "conditions": "1o, 2o 1,000 µg/ml in DMSO, amphotericin B 10 µg/ml, solvent DMSO 0, read-out: inhibition zone diameter, Candida albicans (H8)", "description": "as §1, §2, §3, §4, §5"}, "[3]": {"test_system": "Penicillium notatum JMRC:STI:50164", "assay": "agar diffusion inhibition zone test", "assay_type": "cell-based", "conditions": "1o, 2o 1,000 µg/ml in DMSO; amphotericin B 10 µg/ml; solvent DMSO 13p", "description": "as §1, §2, §3, §4, §5"}, "[4]": {"test_system": "Alternaria alternata JMRC:SF:09317", "assay": "spore inhibition test", "assay_type": "cell-based", "conditions": "48 h; start concentration 1 mg/ml (1o, 2o), 100 µg/ml (Amphotericin B)", "description": "(§6) The following test organisms were used for their susceptibility to compounds 1o and 2o: Alternaria alternata JMRC:SF:09317, Arthroderma benhamiae JMRC:ST:35888, Aspergillus fumigatus JMRC:Afum:00073=ATCC 46645, Aspergillus terreus JMRC:SF:06307, Candida albicans JMRC:ST:35864, Lichtheimia corymbifera JMRC:SF:09682, Penicillium chrysogenum JMRC:SF:10137, Rhizopus arrhizus (syn. R. oryzae) JMRC:SF:05857=ATCC 56536, CBS 112.07.\n(§7) Fungi were grown on 3% malt extract solidified medium for 1 to 2 weeks at room temperature. Then the plates were washed with 7 ml sterile distilled water, and the spore suspension was filtered through 4 layers of sterile Miracloth (Kalbiochem, USA) to remove the hyphae. The concentration of the spore suspension was set to 2 × 10^4 conidia ml^−1 for the in vitro assays.\n(§8) The spore inhibition assay took place in 96-well microplates (flat base). 50 μl of the prepared spore suspension was seeded and then mixed with 50 μl of the respective inhibitor substance. Tests were started with end concentrations of 1 mg ml^−1 and were then reduced in a minimum of 10 halving steps. Thus a 2 mg ml^−1 stock solution diluted in half ten times with solvent (distilled water, 2% DMSO in distilled water, or 2% DMF in distilled water) and each 50 μl was transferred to 50 μl spore suspension. For each test substance, 12 holes on the microtiter plate were filled. After 24 h incubation (25 °C), the germination of the spores was macroscopically and microscopically examined directly in the microtiter plate via measurement of the optical density and light microscopy using an inverse stereomicroscope with subsequent photodocumentation, respectively. If necessary, the plates were further incubated for another 24 or 48 h, depending on the extent of fungal germination."}, "[5]": {"test_system": "Aspergillus fumigatus JMRC:Afum:00073", "assay": "spore inhibition test", "assay_type": "cell-based", "conditions": "48 h; start concentration 1 mg/ml (1o, 2o), 100 µg/ml (Amphotericin B)", "description": "as §6, §7, §8"}, "[6]": {"test_system": "Lichtheimia corymbifera JMRC:SF:09682", "assay": "spore inhibition test", "assay_type": "cell-based", "conditions": "48 h; start concentration 1 mg/ml (1o, 2o), 100 µg/ml (Amphotericin B)", "description": "as §6, §7, §8"}, "[7]": {"test_system": "Arthroderma benhamiae JMRC:ST:35888", "assay": "spore inhibition test", "assay_type": "cell-based", "conditions": "72 h; start concentration 1 mg/ml (1o, 2o), 100 µg/ml (Amphotericin B)", "description": "as §6, §7, §8"}, "[8]": {"test_system": "Penicillium chrysogenum JMRC:SF:10137", "assay": "spore inhibition test", "assay_type": "cell-based", "conditions": "48 h; start concentration 1 mg/ml (1o, 2o), 100 µg/ml (Amphotericin B)", "description": "as §6, §7, §8"}, "[9]": {"test_system": "Candida albicans JMRC:ST:35864", "assay": "spore inhibition test", "assay_type": "cell-based", "conditions": "48 h; start concentration 1 mg/ml (1o, 2o), 100 µg/ml (Amphotericin B)", "description": "as §6, §7, §8"}, "[10]": {"test_system": "Rhizopus arrhizus (syn. R. oryzae) JMRC:SF:05857", "assay": "spore inhibition test", "assay_type": "cell-based", "conditions": "48 h; start concentration 1 mg/ml (1o, 2o), 100 µg/ml (Amphotericin B)", "description": "as §6, §7, §8"}, "[11]": {"test_system": "Aspergillus terreus JMRC:SF:06307", "assay": "spore inhibition test", "assay_type": "cell-based", "conditions": "48 h; start concentration 1 mg/ml (1o, 2o), 100 µg/ml (Amphotericin B)", "description": "as §6, §7, §8"}, "[12]": {"test_system": "parasitaemia", "parameters": "method as in Baragana et al Nature, 2015,522,315", "conditions": "at 0.57 mg/kg; ref Baragana et al Nature, 2015,522,315; cited from earlier work"}, "[13]": {"test_system": "hepatic cell line (HepG2)", "conditions": "cited from earlier work"}, "[14]": {"test_system": "adult Schistosoma mansoni", "conditions": "no longer toxic at 1 μM; cited from earlier work"}, "[15]": {"test_system": "hepatic cell line (HepG2)", "assay": "cytotoxicity on hepatic cell line (literature)", "assay_type": "cell-based"}}}
{"smiles": "C[C@@H]1[C@H](O)[C@@H](C)/C=C/C=C/C=C/C=C/C=C/C=C/C=C/[C@H](O[C@@H]2O[C@H](C)[C@@H](O)[C@H](N)[C@@H]2O)C[C@@H]2O[C@](O)(C[C@@H](O)C[C@@H](O)[C@H](O)CC[C@@H](O)C[C@@H](O)CC(=O)O[C@H]1C)C[C@H](O)[C@H]2C(=O)O", "note": "[Amphotericin B, amphotericin B, reference compound]", "values": [{"measurement": "inhibition zone diameter, Sporobolo. salmonicolor (H4)", "setting": "[1]", "value": 18, "unit": "p"}, {"measurement": "zone of inhibition at 10 µg/mL", "setting": "[2]", "value": 21, "unit": "mm"}, {"measurement": "inhibition zone diameter, Penicillium notatum (P1)", "setting": "[3]", "value": 19, "unit": "p"}, {"measurement": "antifungal profile, 1st value = microscopic visualization-based observation, Alternaria alternata", "setting": "[4]", "value": 0.78}, {"measurement": "antifungal profile, 2nd value = optical density-based observation, Alternaria alternata", "setting": "[4]", "value": 0.1}, {"measurement": "antifungal profile, 1st value = microscopic visualization-based observation, Aspergillus fumigatus", "setting": "[5]", "value": 3.12}, {"measurement": "antifungal profile, 2nd value = optical density-based observation, Aspergillus fumigatus", "setting": "[5]", "value": 0.4}, {"measurement": "antifungal profile, 1st value = microscopic visualization-based observation, Lichtheimia corymbifera", "setting": "[6]", "value": "< 0.05"}, {"measurement": "antifungal profile, 2nd value = optical density-based observation, Lichtheimia corymbifera", "setting": "[6]", "value": "< 0.05"}, {"measurement": "antifungal profile, 1st value = microscopic visualization-based observation, Arthroderma benhamiae", "setting": "[7]", "value": 3.12}, {"measurement": "antifungal profile, 2nd value = optical density-based observation, Arthroderma benhamiae", "setting": "[7]", "value": 0.2}, {"measurement": "antifungal profile, 1st value = microscopic visualization-based observation, Penicillium chrysogenum", "setting": "[8]", "value": 100}, {"measurement": "antifungal profile, 2nd value = optical density-based observation, Penicillium chrysogenum", "setting": "[8]", "value": 1.56}, {"measurement": "antifungal profile, 1st value = microscopic visualization-based observation, Candida albicans", "setting": "[9]", "value": 0.4}, {"measurement": "antifungal profile, 2nd value = optical density-based observation, Candida albicans", "setting": "[9]", "value": 0.2}, {"measurement": "antifungal profile, 1st value = microscopic visualization-based observation, Rhizopus arrhizus", "setting": "[10]", "value": 25}, {"measurement": "antifungal profile, 2nd value = optical density-based observation, Rhizopus arrhizus", "setting": "[10]", "value": 1.56}, {"measurement": "antifungal profile, 1st value = microscopic visualization-based observation, Aspergillus terreus", "setting": "[11]", "value": 50}, {"measurement": "antifungal profile, 2nd value = optical density-based observation, Aspergillus terreus", "setting": "[11]", "value": 0.2}]}
{"smiles": "O=C(NCCN1CCCC1)c1cc(-c2ccc(CN3CCOCC3)cc2)nc2ccc(F)cc12", "note": "[DDD107498]", "values": [{"measurement": "reduction in parasitaemia", "setting": "[12]", "value": 90, "unit": "%"}]}
{"smiles": "O=C(C1CCCCC1)N1CC(=O)N2CCc3ccccc3C2C1", "note": "(stereo not drawn) [praziquantel]", "values": [{"measurement": "IC50", "setting": "[13]", "value": 165, "unit": "µM"}, {"measurement": "concentration toxic for schistosomes in vitro", "setting": "[14]", "value": "5 to 10", "unit": "µM"}, {"measurement": "selectivity index", "setting": "[15]; HepG2 IC50 with respect to adult worms treated in vitro with 5 µM", "value": 33}, {"measurement": "selectivity index", "setting": "[15]; HepG2 IC50 with respect to adult worms treated in vitro with 10 µM", "value": 16.5}]}
